In ChEMBL document CHEMBL1201862, “PubChem BioAssay data set” (2004):
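All cell lines were grown in 96-well plates and treated with compound for 48 hours. GI50 marks 50% less growth.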 Calls of active or inactive are those of the source. Rule as the data show it: active = GI50 up to about 1.1 µM and inactive = higher.

Assays:
Test in all cases: NCI tumour cell line growth inhibition, 48 h
[1] = test system: HCC 2998
[2] = test system: NCI-H522
[3] = test system: OVCAR-3
[4] = test system: SNB-75
[5] = test system: MDA-MB-435
[6] = test system: Malme-3M
[7] = test system: OVCAR-5
[8] = test system: MOLT-4
[9] = test system: OVCAR-8
[10] = test system: TK-10
[11] = test system: 786-0
[12] = test system: RXF 393
[13] = test system: HCT-15
[14] = test system: NCI/ADR-RES
[15] = test system: SK-MEL-5
[16] = test system: HT-29
[17] = test system: COLO 205
[18] = test system: HOP-92
[19] = test system: KM12
[20] = test system: CCRF-CEM

Structure (SMILES)	GI50 [1]	GI50 [2]	GI50 [3]	GI50 [4]	GI50 [5]	GI50 [6]	GI50 [7]	GI50 [8]	GI50 [9]	GI50 [10]	GI50 [11]	GI50 [12]	GI50 [13] [µM]	GI50 [14]	GI50 [15]	GI50 [16]	GI50 [17]	GI50 [18]	GI50 [19]	GI50 [20]
O=C1c2ccccc2C(=O)c2c1oc1cc(O)c(Cl)cc21	4.62 µM (inactive)	9.42 µM (inactive)	2.61 µM (inactive)	2.88 µM (inactive)	1.81 µM (inactive)	1.07 µM (active)	11.2 µM (inactive)	12.3 µM (inactive)	7.38 µM (inactive)	20.9 µM (inactive)	10.8 µM (inactive)	9.46 µM (inactive)	4.66	12.7 µM (inactive)	0.299 µM (active)	1.95 µM (inactive)	1.72 µM (inactive)	8.13 µM (inactive)	6.35 µM (inactive)	8.71 µM (inactive)
CCC/C=C/c1cc2c(cc1O)CC[C@@H]1[C@@H]2CC[C@]2(C)[C@@H](O)CC[C@@H]12	21.5 µM (inactive)	17.3 µM (inactive)	19.2 µM (inactive)	16.4 µM (inactive)	15.7 µM (inactive)	16.5 µM (inactive)	18.4 µM (inactive)	18.3 µM (inactive)	22.9 µM (inactive)	20.7 µM (inactive)	15.2 µM (inactive)	16.3 µM (inactive)	18.6	18.5 µM (inactive)	16.4 µM (inactive)	18.4 µM (inactive)	19.1 µM (inactive)	20.3 µM (inactive)	17.3 µM (inactive)	12 µM (inactive)
CCC[N+](C)(C)CCCNC(=O)c1c(O)c2ccccc2[nH]c1=O	> 100 µM (inactive)	> 100 µM (inactive)	> 100 µM (inactive)	> 100 µM (inactive)	> 100 µM (inactive)	24.3 µM (inactive)	> 100 µM (inactive)	> 100 µM (inactive)	> 100 µM (inactive)	> 100 µM (inactive)	> 100 µM (inactive)	> 100 µM (inactive)	> 100	> 100 µM (inactive)	15.9 µM (inactive)	> 100 µM (inactive)	> 100 µM (inactive)	> 100 µM (inactive)	> 100 µM (inactive)	> 100 µM (inactive)
Oc1c(O)c(Cc2ccccc2)c(Cc2ccccc2)c(Cc2ccccc2)c1Cc1ccccc1	> 10 µM (inactive)	> 10 µM (inactive)	> 10 µM (inactive)	> 10 µM (inactive)	> 10 µM (inactive)	> 10 µM (inactive)	> 10 µM (inactive)	> 10 µM (inactive)	> 10 µM (inactive)	> 10 µM (inactive)	> 10 µM (inactive)	> 10 µM (inactive)	> 10	> 10 µM (inactive)	> 10 µM (inactive)	> 10 µM (inactive)	> 10 µM (inactive)	> 10 µM (inactive)	> 10 µM (inactive)	> 10 µM (inactive)
Cc1ccc(NC(=O)CC(=O)n2nc(C)c(/N=N/c3cccc(C)c3)c2C)cc1	> 100 µM (inactive)	> 100 µM (inactive)	> 100 µM (inactive)	18.1 µM (inactive)	> 100 µM (inactive)	> 100 µM (inactive)	> 100 µM (inactive)	> 100 µM (inactive)	> 100 µM (inactive)	> 100 µM (inactive)	> 100 µM (inactive)	67.3 µM (inactive)	> 100	> 100 µM (inactive)	> 100 µM (inactive)	> 100 µM (inactive)	> 100 µM (inactive)	14 µM (inactive)	> 100 µM (inactive)	86.3 µM (inactive)
CC(=O)O[C@H]1CC[C@@]2(C)C(=CC[C@@H]3[C@@H]2CC[C@]2(C)c4c(C)n[nH]c4C[C@@H]32)C1	18.5 µM (inactive)	6.92 µM (inactive)	12.2 µM (inactive)	12.2 µM (inactive)	16 µM (inactive)	3.75 µM (inactive)	14.9 µM (inactive)	11.7 µM (inactive)	31 µM (inactive)	19.2 µM (inactive)	17.4 µM (inactive)	11.4 µM (inactive)	15	26.1 µM (inactive)	13.4 µM (inactive)	10.3 µM (inactive)	14.7 µM (inactive)	21 µM (inactive)	15.3 µM (inactive)	4.97 µM (inactive)
CNC(=O)/C=C/C1=CN2C(=O)c3ccc(C)c(O)c3NC(OC)C2C1 (stereo not given)	< 0.0126 µM (active)	< 0.0128 µM (active)	< 0.0134 µM (active)	0.0151 µM (active)	< 0.0133 µM (active)	0.0132 µM (active)	0.0244 µM (active)	0.0183 µM (active)	< 0.0141 µM (active)	0.0142 µM (active)	< 0.01 µM (active)	< 0.01 µM (active)	< 0.0131	< 0.01 µM (active)	0.0116 µM (active)	< 0.0143 µM (active)	0.0136 µM (active)	0.0166 µM (active)	< 0.0139 µM (active)	< 0.0247 µM (active)
CC(C)(C)OC(=O)NC(Cc1ccc(O)cn1)C(N)=O (stereo not given)	> 100 µM (inactive)	> 100 µM (inactive)	> 100 µM (inactive)	> 100 µM (inactive)	> 100 µM (inactive)	> 100 µM (inactive)	> 100 µM (inactive)	> 100 µM (inactive)	> 100 µM (inactive)	> 100 µM (inactive)	> 100 µM (inactive)	> 100 µM (inactive)	> 100	> 100 µM (inactive)	> 100 µM (inactive)	> 100 µM (inactive)	> 100 µM (inactive)	> 100 µM (inactive)	> 100 µM (inactive)	> 10 µM (inactive)
COC(=O)C1=NN2c3ccccc3CN([C@@H](C)c3ccccc3)C(=O)[C@H]2[C@@H]1C	24.7 µM (inactive)	21.1 µM (inactive)	27 µM (inactive)	27.2 µM (inactive)	32.1 µM (inactive)	38.4 µM (inactive)	37.6 µM (inactive)	17.3 µM (inactive)	34.7 µM (inactive)	50.1 µM (inactive)	57.7 µM (inactive)	40.3 µM (inactive)	43.9	26.1 µM (inactive)	12.6 µM (inactive)	31.8 µM (inactive)	18.1 µM (inactive)	44.7 µM (inactive)	31 µM (inactive)	0.743 µM (active)
CC1(c2ccc(Cl)cc2)N=C(NCCO)c2ccccc21 (stereo not given)	12.2 µM (inactive)	26.4 µM (inactive)	56.1 µM (inactive)	19.5 µM (inactive)	12.2 µM (inactive)	17.9 µM (inactive)	19.2 µM (inactive)	8.49 µM (inactive)	51.8 µM (inactive)	41.4 µM (inactive)	12.5 µM (inactive)	16.3 µM (inactive)	26.9	99.5 µM (inactive)	14.8 µM (inactive)	5.74 µM (inactive)	13.5 µM (inactive)	8.53 µM (inactive)	15.7 µM (inactive)	2.9 µM (inactive)
Cc1c2c(OCC(O)CN3CCN(c4ccccc4)CC3)nn(C)c(=O)c2c(C)n1-c1ccccc1 (stereo not given)	29.7 µM (inactive)	20.6 µM (inactive)	20.5 µM (inactive)	19.8 µM (inactive)	29.4 µM (inactive)	21.8 µM (inactive)	23.4 µM (inactive)	30.4 µM (inactive)	33 µM (inactive)	47.5 µM (inactive)	18.8 µM (inactive)	26.9 µM (inactive)	20.3	24.6 µM (inactive)	16.6 µM (inactive)	22.7 µM (inactive)	20.3 µM (inactive)	44.4 µM (inactive)	29.3 µM (inactive)	31.2 µM (inactive)
